Columns and labels:
Oryctolagus cuniculus [1] = species on record: Oryctolagus cuniculus; experiment: Compound was tested for inhibition of Angiotensin II-induced vasoconstriction of rabbit aorta.; assay type: functional
[2] = biological target: T1, Angiotensin II receptor (AT-1) type-1 (Rattus norvegicus, UniProt P29089+P25095); experiment: Compound was tested for inhibition of 125 I-Angiotensin II specific binding to rat mesenteric arteries; assay type: protein assay
T1 sequence (P29089 whole entry): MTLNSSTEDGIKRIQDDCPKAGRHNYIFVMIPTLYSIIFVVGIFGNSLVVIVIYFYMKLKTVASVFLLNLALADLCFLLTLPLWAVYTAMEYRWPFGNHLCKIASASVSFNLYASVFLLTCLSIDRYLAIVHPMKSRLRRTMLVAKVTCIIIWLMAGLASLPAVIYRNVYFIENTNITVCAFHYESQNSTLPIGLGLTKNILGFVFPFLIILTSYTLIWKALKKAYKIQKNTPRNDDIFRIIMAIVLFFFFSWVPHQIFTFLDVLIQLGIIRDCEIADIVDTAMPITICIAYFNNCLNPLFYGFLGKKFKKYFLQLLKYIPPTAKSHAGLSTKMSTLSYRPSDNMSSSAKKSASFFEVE
T1 sequence (P25095 whole entry): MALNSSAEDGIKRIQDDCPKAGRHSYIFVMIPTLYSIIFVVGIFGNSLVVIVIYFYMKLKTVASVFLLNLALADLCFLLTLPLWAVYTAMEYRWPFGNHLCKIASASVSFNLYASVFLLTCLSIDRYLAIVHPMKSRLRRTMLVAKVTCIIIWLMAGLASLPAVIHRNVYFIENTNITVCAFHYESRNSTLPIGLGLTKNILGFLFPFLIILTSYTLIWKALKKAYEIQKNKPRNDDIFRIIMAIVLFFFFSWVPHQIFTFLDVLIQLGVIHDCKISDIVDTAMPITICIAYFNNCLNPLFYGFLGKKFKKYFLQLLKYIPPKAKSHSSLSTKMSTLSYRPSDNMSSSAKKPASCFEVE

[3] = biological target: T2, Type-1 angiotensin II receptor (Homo sapiens, UniProt P30556); experiment: Tested for inhibition of Angiotensin II specific binding to Angiotensin II receptor, type 1 in the recombinant human AT-1 receptor expressed in LhAT-1D6 cells; assay type: cell-based
T2 sequence (P30556 whole entry): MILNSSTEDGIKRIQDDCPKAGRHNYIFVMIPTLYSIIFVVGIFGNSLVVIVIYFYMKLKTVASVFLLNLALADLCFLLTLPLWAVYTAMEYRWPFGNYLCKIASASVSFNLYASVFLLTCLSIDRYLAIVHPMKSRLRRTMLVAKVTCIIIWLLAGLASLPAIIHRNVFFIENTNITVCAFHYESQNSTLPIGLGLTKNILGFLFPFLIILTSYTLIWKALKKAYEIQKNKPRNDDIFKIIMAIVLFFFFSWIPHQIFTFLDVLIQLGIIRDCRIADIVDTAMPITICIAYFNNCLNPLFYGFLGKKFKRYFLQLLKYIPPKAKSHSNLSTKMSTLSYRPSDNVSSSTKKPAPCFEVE

Oryctolagus cuniculus [4] = species on record: Oryctolagus cuniculus; experiment: Compound was tested for Non-competitive inhibition ofAngiotensin II -induced vasoconstriction of rabbit aorta.; assay type: functional

Compound | Kb (Oryctolagus cuniculus [1]) | IC50 [2] | IC50 [3] | Kb (Oryctolagus cuniculus [4])
CCCCc1ncc(CN[C@H](C(=O)O)C(C)c2ccccc2)n1Cc1ccc(C(=O)O)cc1 (stereo partly drawn) | 117 nM | 176 nM |  | 
CCCCc1ncc(CN[C@@H](Cc2cccs2)C(=O)O)n1Cc1ccc(C(=O)O)cc1 | 63 nM | 673 nM |  | 
CCCCc1ncc(CN(CC(=O)O)Cc2ccccc2)n1Cc1ccc(C(=O)O)cc1 | 11 nM | 31 nM |  | 
CCCCc1ncc(CNCC(=O)O)n1Cc1ccc(C(=O)O)cc1 | 335 nM |  | 298 nM | 
CCCCc1ncc(CN[C@@H](Cc2ccccc2)C(=O)O)n1Cc1ccc(C(=O)O)cc1 | 125 nM | 517 nM |  | 
CCCCc1ncc(CN(CC(=O)O)Cc2cccs2)n1Cc1ccc(C(=O)O)cc1 | 2.4 nM | 169 nM |  | 
CCCCc1ncc(/C=C(\Cc2cccs2)C(=O)O)n1Cc1ccc(C(=O)O)cc1 [EPROSARTAN] | 0.21 nM |  |  | 
CCCCc1ncc(CN[C@@H](C(=O)O)C(C)c2ccccc2)n1Cc1ccc(C(=O)O)cc1 (stereo partly drawn) |  | 28 nM |  | 0.6 nM
CCCCc1ncc(CN[C@H](Cc2c[nH]c3ccccc23)C(=O)O)n1Cc1ccc(C(=O)O)cc1 | 48 nM |  | 2.9 nM | 
CCCCc1ncc(CN[C@H](Cc2ccccc2)C(=O)O)n1Cc1ccc(C(=O)O)cc1 | 3.6 nM | 3.8 nM |  | 
CCCCc1ncc(CN[C@H](Cc2cccs2)C(=O)O)n1Cc1ccc(C(=O)O)cc1 | 5 nM | 36.7 nM |  | 
CCCCc1ncc(CN[C@@H](Cc2c[nH]c3ccccc23)C(=O)O)n1Cc1ccc(C(=O)O)cc1 | 885 nM |  | 48.3 nM | 
